Measured values reported in a melting point compilation (Tetko et al.; mined from patent text by program, amines drawn as free bases though some values may be those of a salt).

SMILES	melting point [°C]
COc1ccc(Cn2nc(NC(=O)c3cc(NC(=O)c4cc([N+](=O)[O-])nn4Cc4ccc(OC)cc4)nn3Cc3ccc(OC)cc3)cc2C(=O)O)cc1	258 to 260
CCOc1nc(-c2cccc(Cl)c2)c2cc(C(O)(c3ccc(C(=O)OC(C)C)cc3)c3cncn3C)ccc2n1 (stereo not given)	145
CC(Cc1cccc(S(N)(=O)=O)c1)=NO	154 to 157
COc1ccc2[nH]c(S(=O)Cc3ncc(C)c(N(C)C)c3Cl)nc2c1 (stereo not given)	147 to 149
Cc1ccc(S(=O)(=O)OCC2Cc3cccc(-c4ccc(Cl)cc4)c3O2)cc1 (stereo not given)	130 to 133
COc1cc(CO)nnc1OC	151 to 153
CC(c1oc2ccccc2c(=O)c1-c1cccc(F)c1)n1nc(-c2ccc(N3CCOCC3)nc2)c2c(N)ncnc21 (stereo not given)	269 to 271
O=c1ccn2c3ccccc3c3cc(Cl)cc1c32	158 to 159
Cc1c(NC(=O)NC(C)(C)C)c(C)c2c(c1C(C)O)OCC2c1ccc(C(C)C)cc1 (stereo not given)	212 to 214
CCc1nc2cc(Cl)c(F)cc2c(=O)n1CCc1ccccc1	150 to 152
S=C1Nc2cc(Br)ccc2-n2ccc3cccc1c32	214 to 215
O=c1[nH]c2cc(Cl)ccc2c(O)c1-n1ccccc1=O	355
O=C(O)CC(O)(CC(=O)O)C(F)(F)F	102 to 105
O=C1CCCCC1n1nc(-c2c(-c3ccccc3)nn3ccccc23)ccc1=O (stereo not given)	166 to 168
N#CC1(c2ccccc2)C2CC3CC(C2)CC1C3 (stereo not given)	120 to 122
CC(C)C(=O)N[C@@H](CS)C(=O)NCCSC(=O)C(C)(C)C	120 to 122
COC(=O)c1cc2c(Nc3ccc4[nH]ccc4c3C)c(C#N)cnc2s1	255
Cc1cccc(-c2nc3cccnn3c2-c2ccnc(NC(=O)C3CC3)c2)c1	203 to 204
O=C(Nc1ccccc1)C1CCc2c(cnc3[nH]ncc23)C1 (stereo not given)	> 300
COC(=O)CNc1ccc(C(C)C)cc1	35 to 36
CC(C)(C)OC(=O)N1C2CCC1C(=O)C2 (stereo not given)	60 to 62
O=c1nc(-c2cccs2)sc2ccccc12	158
C=CCSc1cn(C)cc(-c2ccccc2)c1=O	136 to 138
CCCCCCNC(=O)Oc1cccc(NC(=O)CC(C)(OC)OC)c1	110
COC1(c2csc(S(=O)(=O)c3ccc(/C(C)=N/O)cc3)c2)CCOCC1	141 to 142
O=S(=O)(c1ccc2ccccc2c1)n1ccc2ccccc21	103 to 105
CCOC(=O)C(=O)c1ccc(OC)s1	136 to 137

Second part, the molecule after the results:

melting point [°C]	SMILES
114 to 115	CC(C)(C)OC(=O)N1CCC(C(=O)c2nc3ccccc3n2Cc2ccc(F)cc2)CC1
177 to 178	COc1ccc(C(=O)c2c(N)sc3c2CCCN3C(=O)OCc2ccccc2)cc1OC
240 to 242	COc1cc(OC)c2c(=O)[nH]c(-c3ccc(OCCO)c(-c4ccccc4)n3)nc2c1
250 to 251	Cc1ccc(C(=O)c2c(O)cc(C(=O)O)cc2[N+](=O)[O-])cc1
75 to 76	O=C(CCCc1ccccc1)c1cccc(OCc2ccc3ccccc3c2)c1
116 to 117	COc1ccc(C=O)cc1C(=O)NCc1ccc(C(F)(F)F)cc1
110 to 111	FC(F)(F)c1ccc(-c2cc(C(F)(F)F)n3nccc3n2)cc1
42 to 43	O=S(=O)(CCc1ccc(Cl)cc1)CCc1ccc(Cl)cc1
123	COC(=O)c1ccc2c(oc3ccccc32)c1C(=O)OC
302 to 304	O=C(O)c1ccc2c(c1)Sc1ccc(Cl)cc1C=C2
59 to 61	CSCc1ccc(C(=O)c2ccc(Cl)cc2)cc1
59 to 64	CC(C)c1ccc(Cc2ccc(CC#N)n2C)cc1
171 to 172	O=C(O)c1ccc(-n2ncc3ccccc32)cc1
